This passage reports EC50 results from patent US20250059141A1, “TLR MODULATOR AND USE THEREOF” (DUALITY BIOLOGICS (SUZHOU) CO., LTD., priority 2021, published 2025).

Where only a bound is given, the exact number is not on record here.

In assay [1] the test system is TNF-α production in human PBMCs. Put plainly: Induction of TNF-α in human PBMCs (ELISA). The following applies: PBMC, 24 h, serial 4-fold dilutions, class symbols, read-out: PBMC assay TNFa EC50. It counts as cell-based. The method, then:
In this example, the induction activity of the compounds of the present application on human PBMCs for TNF-α and IFN-α production was assessed in human PBMCs (human peripheral blood mononuclear cells). The human PBMCs were purchased from Shanghai Saily Biotechnology Co., Ltd. (Cat. No. XFB—HP100B). PBMC cells were treated with the compounds. The compounds of the present application are diluted in DMSO, for example, to about 15 mM. The reference compound was added to the plates in sequence after diluted to 5 mg/mL. The compounds were serially 3- or 4-fold diluted to 8 concentrations and added to plates in duplicate (Table 2-1 for serial 3-fold dilutions and Table 2-2 for serial 4-fold dilutions). For the negative control wells, DMSO was added at 0.4 μL/well, and a 5 mg/mL reference compound solution was added to the positive control wells at 0.4 μL/well. The final concentration of DMSO was 0.2%. Frozen human PBMCs in cryopreservation tubes were quickly thawed in a 37° C. water bath and transferred into 50-mL centrifuge tubes. Prewarmed RPMI1640 medium was gradually added and the mixture was well mixed and centrifuged for 15 min before the supernatant was discarded. The cells were resuspended in a culture medium and counted. The cell suspension was adjusted to 2.5×10^6 cells/mL with the culture medium. Diluted cells were added at 200 μL/500,000 cells/well in 96-well plates containing the compounds. The cell plates were incubated at 37° C./5% CO2 for 24 h.
The plate was then washed thrice. […] Termination of reaction: The reaction was terminated by quickly adding the stop solution at 100 μL/well. Plate reading: The reading at wavelength 450 nm was detected by an M2e instrument within 10 min after the termination.
Compound activity data analysis: The OD450 values were converted to TNF-α and IFN-α contents by GraphPad Prism software analysis and fitted to give dose-response curves of the compounds. The EC50 values for the compounds were calculated, where the Emax values are the maximal values for TNF-α and IFN-α.
Background: ELISA stands for enzyme-linked immunosorbent assay.

Assay [2] concerns the target T1, hTLR8 (human Toll-like receptor 8) (Homo sapiens, UniProt Q9NR97).
T1 construct: host or cells: HEK-Blue hTLR8 (HEK293-derived reporter cells)
T1 sequence (Q9NR97 27-1041): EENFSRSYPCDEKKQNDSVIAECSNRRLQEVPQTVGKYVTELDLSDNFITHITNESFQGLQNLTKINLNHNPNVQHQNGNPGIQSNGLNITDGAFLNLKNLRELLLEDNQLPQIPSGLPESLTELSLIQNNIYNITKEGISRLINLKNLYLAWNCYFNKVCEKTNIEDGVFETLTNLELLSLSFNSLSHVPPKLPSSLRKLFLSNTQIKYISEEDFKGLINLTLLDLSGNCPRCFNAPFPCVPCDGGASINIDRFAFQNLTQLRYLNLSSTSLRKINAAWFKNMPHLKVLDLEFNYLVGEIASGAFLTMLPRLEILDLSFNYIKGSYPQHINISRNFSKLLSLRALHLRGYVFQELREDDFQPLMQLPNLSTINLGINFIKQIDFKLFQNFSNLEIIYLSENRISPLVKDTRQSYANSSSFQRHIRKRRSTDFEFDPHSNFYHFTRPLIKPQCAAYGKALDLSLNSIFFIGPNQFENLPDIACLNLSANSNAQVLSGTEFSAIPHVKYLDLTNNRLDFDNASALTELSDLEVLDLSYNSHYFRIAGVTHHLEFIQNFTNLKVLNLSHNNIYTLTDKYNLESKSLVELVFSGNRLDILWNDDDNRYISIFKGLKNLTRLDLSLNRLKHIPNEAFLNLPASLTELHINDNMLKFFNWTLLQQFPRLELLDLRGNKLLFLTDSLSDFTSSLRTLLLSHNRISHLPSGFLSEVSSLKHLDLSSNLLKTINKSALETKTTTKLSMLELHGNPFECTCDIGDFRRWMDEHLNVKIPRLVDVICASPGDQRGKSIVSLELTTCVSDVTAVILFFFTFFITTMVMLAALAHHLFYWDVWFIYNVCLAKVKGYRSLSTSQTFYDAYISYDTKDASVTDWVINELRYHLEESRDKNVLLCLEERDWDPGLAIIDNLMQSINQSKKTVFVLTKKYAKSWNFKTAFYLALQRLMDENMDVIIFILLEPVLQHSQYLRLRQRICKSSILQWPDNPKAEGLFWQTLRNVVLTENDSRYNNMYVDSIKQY
Put plainly: HEK-Blue hTLR8 reporter assay (QUANTI-Blue, OD650). It counts as cell-based. The settings on record: HEK-Blue hTLR8 cells, 24 h; class symbols; read-out: Reporter assay TLR8 EC50. On the procedure:
In this example, the agonistic activity of the compounds of the present application on hTLR7 (human Toll-like receptor 7) and hTLR8 (human Toll-like receptor 8) was assessed; the induction activity of the compounds on human PBMCs for TNF-α and IFN-α production was assessed in human PBMCs (human peripheral blood mononuclear cells).
All compounds were formulated in DMSO into 30 mM stock solutions and preserved at 4° C. The reference compound ([…], Cat. No. tlrl-r848-5) was purchased from InvivoGen and formulated into a 5 mg/mL stock solution in DMSO and preserved in a freezer at −20° C. HEK-Blue hTLR7 and HEK-Blue hTLR8 cell lines were purchased from InvivoGen, and human PBMCs were purchased from Shanghai Saily Biotechnology Co., Ltd. (Cat. No. XFB—HP100B).
The major instruments used in this study were multifunctional microplate reader Flexstation III (Molecular Device), Envision (Perkin Elmer), M2e (Molecular Device), and Echo555 (Labcyte). 2.1 Agonistic activity of compounds on hTLR7 (human Toll-like receptor 7) and hTLR8 (human Toll-like receptor 8)
Compound dilution: The compounds of the present application are diluted in DMSO, for example, to about 15 mM. The reference compound was added to the plates in sequence after dilution. The compounds were serially 3-fold diluted to 10 concentrations and added to 96-well plates in duplicate.
For the negative control wells, DMSO was added at 0.2 μL/well, and the reference compound was added to the positive control wells. The final concentration of DMSO was 0.2%.
Cell plating: When an 80% confluence of HEK Blue hTLR7&8 cells in the culture flask was observed under a microscope, the culture medium was discarded, 10 mL of detection medium was added, and the cells were separated by pipetting. The cells were counted on a cytometer and diluted to 500,000 cells/mL. The cells were plated at 100 μL/50,000 cells/well in the 96-well plates containing the compounds. The compounds and cells were co-incubated at 37° C. in a 5% CO2 incubator for 24 hours.
Compound activity detection: 20 μL of cell supernatant was taken from each well and added to a plate containing QUANTI-Blue™ reagent at 180 μL/well. The plate was incubated at 37° C. for 1 hour, and the absorbance at 650 nm (OD650) was measured on the multifunctional microplate reader Flexstation III.
Compound activity data analysis: The OD650 values were analyzed by GraphPad Prism software and fitted to give dose-response curves of the compounds. The EC50 values of compounds were calculated.
For orientation: A reporter such as luciferase makes a cellular process visible.

For orientation: EC50 means the concentration giving half of the maximal effect. Regarding `CCCN(OCc1ccc(N)cc1)C(=O)C1=Cc2ccc(-c3cccc(S(=O)(=O)NCCO)c3)cc2N=C(N)C1` [Compound 64], the EC50 in assay [1] and in assay [2] was not above 10 nM each time.
On to `CCCN(OCc1ccc(N)cc1)C(=O)C1=Cc2ccc(-c3cccc(S(=O)(=O)N4CCC(O)CC4)c3)cc2N=C(N)C1` [Compound 66], for which the EC50 in assay [1] and in assay [2] was not above 10 nM throughout.
For the molecule `CCCN(OCc1ccc(N)cc1)C(=O)C1=Cc2ccc(-c3cccc(S(=O)(=O)N4CCNCC4)c3)cc2N=C(N)C1` [Compound 67], the EC50 in assay [1] and in assay [2] was not above 10 nM in each case.
In the case of `CCCN(OCc1ccc(N)cc1)C(=O)C1=Cc2ccc(-c3cccc(S(=O)(=O)N4CCOCC4)c3)cc2N=C(N)C1` [Compound 68], the EC50 in assay [1] and in assay [2] was not above 10 nM in each case.
With `CCCN(OCc1ccc(N)cc1)C(=O)C1=Cc2ccc(-c3cncc(S(=O)(=O)N4CCNCC4)c3)cc2N=C(N)C1` [Compound 69], the EC50 in assay [1] and in assay [2] was not above 10 nM each time.
`CCCN(OCc1ccc(N)cc1)C(=O)C1=Cc2ccc(-c3cncc(S(=O)(=O)NCCO)c3)cc2N=C(N)C1` [Compound 70]: the EC50 in assay [1] and in assay [2] was not above 10 nM throughout.
`CCCN(OCc1ccc(N)cc1)C(=O)C1=Cc2ccc(-c3cncc(S(=O)(=O)N4CCC(O)CC4)c3)cc2N=C(N)C1` [Compound 71]: the EC50 in assay [1] and in assay [2] was not above 10 nM each time.
Consider `CCCN(OCc1ccc(N)cc1)C(=O)C1=Cc2ccc(-c3cncc(S(=O)(=O)N4CC[C@H](O)C4)c3)cc2N=C(N)C1` [Compound 72], for which the EC50 in assay [1] and in assay [2] was not above 10 nM throughout.
With `CCCN(OCc1ccc(N)cc1)C(=O)C1=Cc2ccc(-c3cncc([S+](C)[O-])c3)cc2N=C(N)C1` (centres unmarked) [Compound 73], the EC50 in assay [1] and in assay [2] was not above 10 nM each time.
Turning to `CCCN(OCc1ccc(N)cc1)C(=O)C1=Cc2ccc(C(=O)NC(C)(C)c3ccccc3)cc2N=C(N)C1` [Compound 76], the EC50 in assay [1] and in assay [2] was not above 10 nM in each case.
With `CCCN(OCc1ccc(N)cc1)C(=O)C1=Cc2ccc(C(=O)N[C@@H](C)c3ccccc3)cc2N=C(N)C1` [Compound 77], the EC50 in assay [1] and in assay [2] was not above 10 nM in each case.
As to `CCCN(OCc1ccc(N)cc1)C(=O)C1=Cc2ccc(C(=O)N[C@H]3C[C@@H]3c3ccccc3)cc2N=C(N)C1` [Compound 78], the EC50 in assay [1] and in assay [2] was not above 10 nM each time.
With `CCCN(OCc1ccc(N)cc1)C(=O)C1=Cc2ccc(C(=O)NC3COC3)cc2N=C(N)C1` [Compound 81], the EC50 in assay [1] lay in the range of 10 to 50 nM; in assay [2] it was 10 to 100 nM.
Take `CCCN(OCc1ccc(N)cc1)C(=O)C1=Cc2ccc(C(=O)NC3CCCCC3)cc2N=C(N)C1` [Compound 82]: the EC50 in assay [1] and in assay [2] was not above 10 nM each time.
For `CCCN(OCc1ccc(N)cc1)C(=O)C1=Cc2ccc(C(=O)NC3CCOCC3)cc2N=C(N)C1` [Compound 84], the EC50 in assay [1] was not above 10 nM; in assay [2], 10 to 100 nM.
For `CCCN(OCc1ccc(N)cc1)C(=O)C1=Cc2ccc(C(=O)Nc3cncc(OC)c3)cc2N=C(N)C1` [Compound 85], the EC50 in assay [1] and in assay [2] was not above 10 nM each time.
Take `CCCN(OCc1ccc(N)cc1)C(=O)C1=Cc2ccc(C(=O)Nc3cccc(CN)c3)cc2N=C(N)C1` [Compound 86]: the EC50 in assay [1] and in assay [2] was not above 10 nM in each case.
In the case of `CCCN(OCc1ccc(N)cc1)C(=O)C1=Cc2ccc(C(=O)Nc3ncco3)cc2N=C(N)C1` [Compound 87], the concentration for a half-maximal effect (EC50) in assay [1] and in assay [2] was not above 10 nM throughout.
Turning to `CCCN(OCc1ccc(N)cc1)C(=O)C1=Cc2ccc(C(=O)Nc3ccn(C)n3)cc2N=C(N)C1` [Compound 88], the concentration for a half-maximal effect (EC50) in assay [1] and in assay [2] was not above 10 nM throughout.
On to `CCCN(OCc1ccc(N)cc1)C(=O)C1=Cc2ccc(C(=O)Nc3ccc4cn[nH]c4c3)cc2N=C(N)C1` [Compound 89], for which the EC50 in assay [1] is 10 to 50 nM; in assay [2] it was 10 to 100 nM.
`CCCN(OCc1ccc(N)cc1)C(=O)C1=Cc2ccc(C(=O)Nc3ccc4c(c3)CNC4)cc2N=C(N)C1` [Compound 90]: the EC50 in assay [1] and in assay [2] was not above 10 nM throughout.
`CCCN(OCc1ccc(N)cc1)C(=O)C1=Cc2ccc(C(=O)N3CCN(C)CC3)cc2N=C(N)C1` [Compound 93]: the EC50 in assay [1] and in assay [2] was not above 10 nM in each case.
Turning to `CCCN(OCc1ccc(N)cc1)C(=O)C1=Cc2ccc(C(=O)N3CC(Oc4ccccc4)C3)cc2N=C(N)C1` [Compound 94], the EC50 in assay [1] and in assay [2] was not above 10 nM throughout.
For `CCCN(OCc1ccc(N)cc1)C(=O)C1=Cc2ccc(C(=O)N3CC4(COC4)C3)cc2N=C(N)C1` [Compound 95], the EC50 in assay [1] and in assay [2] was not above 10 nM each time.
For the molecule `CCCN(OCc1ccc(N)cc1)C(=O)C1=Cc2ccc(C(=O)N3CCN(c4ccccc4)CC3)cc2N=C(N)C1` [Compound 97], the EC50 in assay [1] and in assay [2] was not above 10 nM throughout.
